In the NIST ThermoML archive (doi:10.1021/je900557u):
± gives the expanded uncertainty stated by the source.

Assays:
[1] = xn = mol fraction of the nth substance listed; settings: 298.15 K, 101 kPa, Liquid, Vibrating tube method
[2] = refractive index (Na D-line) (dimensionless); settings: 298.15 K; 101.33 kPa; Liquid; refractometer
[3] = 298.15 K; 101.33 kPa; Liquid; Vibrating tube method

Structure (SMILES): CCCCCC [hexane] + CCc1ccccc1
- mass density ([1]; x1 = 1): 655.19 ± 0.25 kg/m3

Structure (SMILES): CCOS(=O)(=O)[O-].CC[n+]1cccc(C)c1 [1-ethyl-3-methylpyridinium ethylsulfate]
- refractive index [2]: 1.50591 ± 0.00024
- mass density [3]: 1219.61 ± 0.42 kg/m3

Structure (SMILES): CCCCCC [hexane]
- refractive index [2]: 1.37234 ± 0.00024
- mass density [3]: 655.19 ± 0.26 kg/m3

Structure (SMILES): Cc1ccccc1 [toluene] + CCCCCC
- mass density ([1]; x2 = 0): 862.17 ± 0.11 kg/m3

Structure (SMILES): CCc1ccccc1 [ethylbenzene] + CCCCCC
- mass density ([1]; x2 = 0): 862.51 ± 0.11 kg/m3
- mass density ([1]; x2 = 0.0903): 843.13 ± 0.28 kg/m3
- mass density ([1]; x2 = 0.1776): 824.35 ± 0.29 kg/m3
- mass density ([1]; x2 = 0.2675): 805.21 ± 0.29 kg/m3
- mass density ([1]; x2 = 0.3777): 781.93 ± 0.29 kg/m3
- mass density ([1]; x2 = 0.4931): 757.81 ± 0.3 kg/m3
- mass density ([1]; x2 = 0.5929): 737.22 ± 0.31 kg/m3
- mass density ([1]; x2 = 0.6947): 716.43 ± 0.32 kg/m3
- mass density ([1]; x2 = 0.7984): 695.45 ± 0.33 kg/m3
- mass density ([1]; x2 = 0.8942): 676.28 ± 0.34 kg/m3

Structure (SMILES): CCCCCC [hexane] + Cc1ccccc1
- mass density ([1]; x1 = 0.083): 841.73 ± 0.31 kg/m3
- mass density ([1]; x1 = 0.1713): 820.75 ± 0.3 kg/m3
- mass density ([1]; x1 = 0.298): 791.72 ± 0.3 kg/m3
- mass density ([1]; x1 = 0.396): 770.3 ± 0.3 kg/m3
- mass density ([1]; x1 = 0.5011): 748.44 ± 0.3 kg/m3
- mass density ([1]; x1 = 0.5949): 729.53 ± 0.3 kg/m3
- mass density ([1]; x1 = 0.6973): 709.61 ± 0.3 kg/m3
- mass density ([1]; x1 = 0.7961): 691.1 ± 0.31 kg/m3
- mass density ([1]; x1 = 0.8946): 673.45 ± 0.32 kg/m3
- mass density ([1]; x1 = 1): 655.19 ± 0.25 kg/m3

Structure (SMILES): CCc1ccccc1 [ethylbenzene]
- refractive index [2]: 1.49304 ± 0.00014
- mass density [3]: 862.51 ± 0.11 kg/m3

Structure (SMILES): Cc1ccccc1 [toluene]
- refractive index [2]: 1.49399 ± 0.00014
- mass density [3]: 862.17 ± 0.11 kg/m3
